Columns and labels:
[1] = tested on: white mice; assay: Acute Toxicity in white mice after oral administration; format: in vivo; details: single dose of 300 mg/kg, observation time 14 days
Method: (§1) The acute toxicity of the test compounds was determined in white mice after oral administration of a single dose of 300 mg/kg (observation time: 14 days).

[2] = as above; format: in vivo; details: mouse, in vivo, single dose of 300 mg/kg, observation time 14 days
Method: as §1

SMILES | animals died [1] | LD50 at 336 h [2] [mg/kg]
COc1ccc(-c2nc3ncncc3[nH]2)c(OC)c1 [A, 8-(2,4-Dimethoxy-phenyl)-purine] | 0 out of 6 | > 300
COc1cc(SC)ccc1-c1nc2ncncc2[nH]1 [B, 8-(2-Methoxy-4-methylmercapto-phenyl)-purine] | 2 out of 6 | > 300
COc1ccc(-c2nc3ncncc3[nH]2)c(OCCSC)c1 [C, 8-[4-Methoxy-2-(2-methylmercapto-ethoxy)-phenyl]purine] | 0 out of 6 | > 300
COc1ccc(-c2nc3ncncc3[nH]2)c(OCC[S+](C)[O-])c1 (stereo not drawn) [D, 8-[4-Methoxy-2-(2-methylsulfinyl-ethoxy)-phenyl]purine] | 0 out of 6 | > 300
COc1cc(Cl)ccc1-c1nc2ncncc2[nH]1 [G, 8-(4-Chloro-2-methoxy-phenyl)-purine] | 1 out of 6 | > 300
COc1cc([S+](C)[O-])ccc1-c1nc2ncncc2[nH]1 (stereo not drawn) [H, 8-(2-Methoxy-4-methylsulfinyl-phenyl)-purine] | 3 out of 6 | ~300

Source: patent US4299834A, “8-Phenyl-purines and pharmaceutical compositions containing same” (Boehringer Ingelheim Gesellschaft mit beschrankter Haftung, priority 1979, dated 1981)
